Test results as given in ChEMBL document CHEMBL4308841, “Synthesis, in vitro antiproliferative activity, and kinase inhibitory effects of pyrazole-containing diarylureas and diarylamides” (Eur J Med Chem, 2018).

Tests used:
PC-3 = test: Growth inhibition of human PC3 cells incubated for 48 hrs by sulforhodamine B assay; assay type: functional, cell-based; settings: PC-3, 48 h
MOLT-4 = test: Growth inhibition of human MOLT4 cells assessed as cell growth at 0.01 uM incubated for 48 hrs by sulforhodamine B assay relative to control; assay type: functional; settings: MOLT-4, 48 h, read-out: Activity
MDA-MB-468 = test: Growth inhibition of human MDA-MB-468 cells assessed as cell growth at 1 uM incubated for 48 hrs by sulforhodamine B assay relative to control; assay type: functional; settings: MDA-MB-468, 48 h, read-out: Activity
MCF7 = test: Growth inhibition of human MCF7 cells assessed as cell growth at 100 uM incubated for 48 hrs by sulforhodamine B assay relative to control; assay type: functional; settings: MCF7, 48 h, read-out: Activity
SNB-19 = test: Growth inhibition of human SNB19 cells assessed as cell growth at 100 uM incubated for 48 hrs by sulforhodamine B assay relative to control; assay type: functional; settings: SNB-19, 48 h, read-out: Activity
NCI-H460 [1] = test: Growth inhibition of human NCI-H460 cells assessed as cell growth at 0.01 uM incubated for 48 hrs by sulforhodamine B assay relative to control; assay type: functional; settings: NCI-H460, 48 h, read-out: Activity
SK-MEL-5 = test: Growth inhibition of human SK-MEL-5 cells assessed as cell growth at 100 uM incubated for 48 hrs by sulforhodamine B assay relative to control; assay type: functional; settings: SK-MEL-5, 48 h, read-out: Activity
HCT-15 = test: Growth inhibition of human HCT15 cells assessed as cell growth at 1 uM incubated for 48 hrs by sulforhodamine B assay relative to control; assay type: functional; settings: HCT-15, 48 h, read-out: Activity
A549 = test: Growth inhibition of human A549/ATCC cells incubated for 48 hrs by sulforhodamine B assay; assay type: functional, cell-based; settings: A549, 48 h
786-0 = test: Growth inhibition of human 786-0 cells assessed as cell growth at 1 uM incubated for 48 hrs by sulforhodamine B assay relative to control; assay type: functional; settings: 786-0, 48 h, read-out: Activity
NCI-H322M = test: Growth inhibition of human NCI-H322M cells assessed as cell growth at 1 uM incubated for 48 hrs by sulforhodamine B assay relative to control; assay type: functional; settings: read-out: Activity
MDA-MB-231 = test: Growth inhibition of human MDA-MB-231 cells assessed as cell growth at 1 uM incubated for 48 hrs by sulforhodamine B assay relative to control; assay type: functional; settings: MDA-MB-231, 48 h, read-out: Activity
Malme-3M = test: Growth inhibition of human MALME-3M cells assessed as cell growth at 0.01 uM incubated for 48 hrs by sulforhodamine B assay relative to control; assay type: functional; settings: read-out: Activity
IGROV-1 = test: Growth inhibition of human IGROV1 cells assessed as cell growth at 1 uM incubated for 48 hrs by sulforhodamine B assay relative to control; assay type: functional; settings: IGROV-1, 48 h, read-out: Activity
SK-MEL-2 = test: Growth inhibition of human SK-MEL-2 cells assessed as cell growth at 1 uM incubated for 48 hrs by sulforhodamine B assay relative to control; assay type: functional; settings: SK-MEL-2, 48 h, read-out: Activity
NCI/ADR-RES = test: Growth inhibition of human NCI/ADR-RES cells incubated for 48 hrs by sulforhodamine B assay; assay type: functional, cell-based
HCT-116 [2] = test: Growth inhibition of human HCT116 cells assessed as cell growth at 1 uM incubated for 48 hrs by sulforhodamine B assay relative to control; assay type: functional; settings: HCT-116, 48 h, read-out: Activity
OVCAR-3 = test: Growth inhibition of human OVCAR3 cells assessed as cell growth at 0.01 uM incubated for 48 hrs by sulforhodamine B assay relative to control; assay type: functional; settings: OVCAR-3, 48 h, read-out: Activity
NCI-H23 = test: Growth inhibition of human NCI-H23 cells incubated for 48 hrs by sulforhodamine B assay; assay type: functional, cell-based; settings: NCI-H23, 48 h
MDA-MB-435 = test: Growth inhibition of human MDA-MB-435 cells assessed as cell growth at 1 uM incubated for 48 hrs by sulforhodamine B assay relative to control; assay type: functional; settings: MDA-MB-435, 48 h, read-out: Activity
HT-29 = test: Growth inhibition of human HT-29 cells assessed as cell growth at 0.1 uM incubated for 48 hrs by sulforhodamine B assay relative to control; assay type: functional; settings: HT-29, 48 h, read-out: Activity
M14 = test: Growth inhibition of human M14 cells assessed as cell growth at 0.1 uM incubated for 48 hrs by sulforhodamine B assay relative to control; assay type: functional; settings: M14, 48 h, read-out: Activity
OVCAR-4 = test: Growth inhibition of human OVCAR4 cells assessed as cell growth at 100 uM incubated for 48 hrs by sulforhodamine B assay relative to control; assay type: functional; settings: OVCAR-4, 48 h, read-out: Activity
HCT-116 [3] = test: Growth inhibition of human HCT116 cells assessed as cell growth at 100 uM incubated for 48 hrs by sulforhodamine B assay relative to control; assay type: functional; settings: HCT-116, 48 h, read-out: Activity
SR = test: Growth inhibition of human SR cells assessed as cell growth at 1 uM incubated for 48 hrs by sulforhodamine B assay relative to control; assay type: functional; settings: read-out: Activity
SN12C = test: Growth inhibition of human SN12C cells assessed as cell growth at 100 uM incubated for 48 hrs by sulforhodamine B assay relative to control; assay type: functional; settings: read-out: Activity
SK-MEL-28 = test: Growth inhibition of human SK-MEL-28 cells assessed as cell growth at 1 uM incubated for 48 hrs by sulforhodamine B assay relative to control; assay type: functional; settings: SK-MEL-28, 48 h, read-out: Activity
NCI-H460 [4] = test: Growth inhibition of human NCI-H460 cells assessed as cell growth at 100 uM incubated for 48 hrs by sulforhodamine B assay relative to control; assay type: functional; settings: NCI-H460, 48 h, read-out: Activity
HCT-116 [5] = test: Growth inhibition of human HCT116 cells assessed as cell growth at 0.01 uM incubated for 48 hrs by sulforhodamine B assay relative to control; assay type: functional; settings: HCT-116, 48 h, read-out: Activity
COLO 205 = test: Growth inhibition of human COLO205 cells assessed as cell growth at 1 uM incubated for 48 hrs by sulforhodamine B assay relative to control; assay type: functional; settings: COLO 205, 48 h, read-out: Activity
NCI-H460 [6] = test: Growth inhibition of human NCI-H460 cells assessed as cell growth at 0.1 uM incubated for 48 hrs by sulforhodamine B assay relative to control; assay type: functional; settings: NCI-H460, 48 h, read-out: Activity
[7] = read-out: LC50 (the source's name)
[8] = read-out: pLC50 (the source's name) (converted)

COc1cc(Cl)cc(-c2nn(-c3cccc(NC(=O)c4cccc(C(F)(F)F)c4)c3)cc2-c2ccncc2)c1
IC50 (PC-3): 2.71 µM | GI50 (PC-3; read-out: GI50): 2.71 µM | CC50 (PC-3; [7]): > 100 µM | TGI (PC-3; read-out: TGI): > 100 µM | GI50 (PC-3; read-out: pGI50 (converted)): 2.69 µM | CC50 (PC-3; [8]): > 100 µM | TGI (PC-3; read-out: pTGI (converted)): > 100 µM | growth at 0.01 µM (MOLT-4): 91% | growth at 1 µM (MDA-MB-468): 50% | growth at 100 µM (MCF7): 38% | growth at 100 µM (SNB-19): 72% | growth at 0.01 µM (NCI-H460 [1]): 101% | growth at 100 µM (SK-MEL-5): 20% | growth at 1 µM (HCT-15): 71% | IC50 (A549): 3.62 µM | GI50 (A549; read-out: GI50): 3.52 µM | CC50 (A549; [7]): > 100 µM | TGI (A549; read-out: TGI): > 100 µM | GI50 (A549; read-out: pGI50 (converted)): 3.63 µM | CC50 (A549; [8]): > 100 µM | TGI (A549; read-out: pTGI (converted)): > 100 µM | growth at 1 µM (786-0): 56% | growth at 1 µM (NCI-H322M): 90% | growth at 1 µM (MDA-MB-231): 58% | growth at 0.01 µM (Malme-3M): 58% | growth at 1 µM (IGROV-1): 94% | growth at 1 µM (SK-MEL-2): 56% | GI50 (NCI/ADR-RES; read-out: GI50): 5.38 µM | CC50 (NCI/ADR-RES; [7]): > 100 µM | TGI (NCI/ADR-RES; read-out: TGI): > 100 µM | GI50 (NCI/ADR-RES; read-out: pGI50 (converted)): 5.37 µM | CC50 (NCI/ADR-RES; [8]): > 100 µM | TGI (NCI/ADR-RES; read-out: pTGI (converted)): > 100 µM | growth at 1 µM (HCT-116 [2]): 71% | growth at 0.01 µM (OVCAR-3): 105% | GI50 (NCI-H23; read-out: GI50): 5.74 µM | LC50 (NCI-H23; read-out: LC50): > 100 µM | TGI (NCI-H23; read-out: TGI): > 100 µM | GI50 (NCI-H23; read-out: pGI50 (converted)): 6.76 µM | LC50 (NCI-H23; read-out: pLC50 (converted)): > 100 µM | TGI (NCI-H23; read-out: pTGI (converted)): > 100 µM | growth at 1 µM (MDA-MB-435): 93% | growth at 0.1 µM (HT-29): 93% | growth at 0.1 µM (M14): 93% | growth at 100 µM (OVCAR-4): 74% | growth at 100 µM (HCT-116 [3]): 22% | growth at 1 µM (SR): 58% | growth at 100 µM (SN12C): 52% | growth at 1 µM (SK-MEL-28): 92% | growth at 100 µM (NCI-H460 [4]): 30% | growth at 0.01 µM (HCT-116 [5]): 100% | growth at 1 µM (COLO 205): 94% | growth at 0.1 µM (NCI-H460 [6]): 99%

COc1cc(Cl)cc(-c2nn(-c3cccc(NC(=O)Nc4cccc(C(F)(F)F)c4)c3)cc2-c2ccncc2)c1
IC50 (PC-3): 0.42 µM | GI50 (PC-3; read-out: GI50): 0.417 µM | CC50 (PC-3; [7]): > 100 µM | TGI (PC-3; read-out: TGI): 32 µM | GI50 (PC-3; read-out: pGI50 (converted)): 0.417 µM | CC50 (PC-3; [8]): > 100 µM | TGI (PC-3; read-out: pTGI (converted)): 3.24 µM | growth at 0.01 µM (MOLT-4): 95% | growth at 1 µM (MDA-MB-468): 51% | growth at 100 µM (MCF7): -24% | growth at 100 µM (SNB-19): -13% | growth at 0.01 µM (NCI-H460 [1]): 102% | growth at 100 µM (SK-MEL-5): -99% | growth at 1 µM (HCT-15): 57% | IC50 (A549): 0.73 µM | GI50 (A549; read-out: GI50): 0.726 µM | CC50 (A549; [7]): > 100 µM | TGI (A549; read-out: TGI): 74.2 µM | GI50 (A549; read-out: pGI50 (converted)): 0.724 µM | CC50 (A549; [8]): > 100 µM | TGI (A549; read-out: pTGI (converted)): 7.41 µM | growth at 1 µM (786-0): 77% | growth at 1 µM (NCI-H322M): 83% | growth at 1 µM (MDA-MB-231): 71% | growth at 0.01 µM (Malme-3M): 95% | growth at 1 µM (IGROV-1): 85% | growth at 1 µM (SK-MEL-2): 85% | GI50 (NCI/ADR-RES; read-out: GI50): 1.65 µM | CC50 (NCI/ADR-RES; [7]): > 100 µM | TGI (NCI/ADR-RES; read-out: TGI): 75.1 µM | GI50 (NCI/ADR-RES; read-out: pGI50 (converted)): 1.66 µM | CC50 (NCI/ADR-RES; [8]): > 100 µM | TGI (NCI/ADR-RES; read-out: pTGI (converted)): 7.76 µM | growth at 1 µM (HCT-116 [2]): 43% | growth at 0.01 µM (OVCAR-3): 100% | GI50 (NCI-H23; read-out: GI50): 1.76 µM | LC50 (NCI-H23; read-out: LC50): > 100 µM | TGI (NCI-H23; read-out: TGI): 55.9 µM | GI50 (NCI-H23; read-out: pGI50 (converted)): 1.78 µM | LC50 (NCI-H23; read-out: pLC50 (converted)): > 100 µM | TGI (NCI-H23; read-out: pTGI (converted)): 6.76 µM | growth at 1 µM (MDA-MB-435): 85% | growth at 0.1 µM (HT-29): 95% | growth at 0.1 µM (M14): 93% | growth at 100 µM (OVCAR-4): -13% | growth at 100 µM (HCT-116 [3]): -81% | growth at 1 µM (SR): 55% | growth at 100 µM (SN12C): -20% | growth at 1 µM (SK-MEL-28): 82% | growth at 100 µM (NCI-H460 [4]): -48% | growth at 0.01 µM (HCT-116 [5]): 101% | growth at 1 µM (COLO 205): 79% | growth at 0.1 µM (NCI-H460 [6]): 102%
